Tests used:
[1] = tested on: Aedes Aegypti female mosquitoes; assay: Knockdown efficacy against mosquitoes in glass chamber; format: in vivo; details: for pest or weed control at 5 mg/strip: Aedes aegypti, 24 h, read-out: Dead (%); for KD50 / KD80 / Dead (%): Barex strips coated with 5 mg of each active; for KD50 / KD80: 20 min test period; for knockdown / biological activity in glass chamber (in words): fresh samples, 5 mg, 20 minute test period; for Dead (%): 24 hours post treatment
Method: Markings were made to identify the side to be treated with the active. Markings were also made to leave one inch spacing on either ends 12 and 14 of the strip 10 to enable handling. Intermediate solutions of the active in organic solvents were prepared. A micropipettor, calibrated to transfer a known amount of intermediate solution on to the strip, was used to dose the strip with the active. The solution, after transferring onto the strip 10, was made to wet a 2 inch by 8 inch area 16 between ends 12 and 14, and allowed to sit on the bench top until most of the solvent evaporated and the strips appeared dry (which took 15 minutes to 30 minutes). Strips 10 were then either folded twice and held together with a metal clip and kept in a glass jar or were wrapped in aluminum foil and kept in a sealed plastic bag. These were then stored in the refrigerator at −10° C. until further use.
A Glass chamber (0.75 m×0.75 m×0.75 m) was used for the test and was maintained at 80° F. and 50% relative humidity. Three treated strips were placed on a card board tray covered with an aluminum foil and then transferred to the glass chamber. The strips were exposed in the chamber for three minutes to allow insecticide vapors build-up in the enclosed air. Strips were then quickly removed, folded and stored in the refrigerator. Ten laboratory-cultured adult Aedes Aegypti female mosquitoes were released into the chamber. […] After 20 minutes of exposure, all mosquitoes were collected and placed in a container with sucrose pad. […] KD50, KD80, and % Dead values of the tests were obtained for analysis. KD50 and KD80 are defined as the time taken for 50% and 80% of the mosquitoes to get knocked down and % Dead is simply the percentage of mosquitoes that are dead after 24 hour period. The glass chamber was then dismantled and thoroughly wiped with soap solution to remove contamination of the active. The walls were then wiped with a paper towel and allowed to dry before assembling again for the next run.

[2] = Release of active in wind tunnel (residual analysis); format: physicochemical; details: for % Evap Barex: 5 mg transfluthrin coated on Barex (103 sq. cm.) from the named solvent; for % Evap Filter Paper: 5 mg transfluthrin coated on filter paper (103 sq. cm.) from the named solvent
Description: A computer controlled wind tunnel was custom designed using a fan 18 for drawing fresh air designated by arrows 20 past baffles 22 into a chamber 28 containing multiple strips 10 to determine the release of actives from these strips under controlled environmental conditions (see FIG. 2).
Preset wind velocities can be entered into the computer and maintained without operator's involvement during the testing period. Honey comb flow straighteners 24 and 26 were placed on either ends of the wind tunnel to obtain uniform velocity profiles. Strips 10 were placed on the floor of a 12 inch by 12 inch cross sectioned body in triplicates in a staggered fashion so as to equalize any possible errors that arise from spatial dependency of air velocity. All studies were carried out at a constant air flow rate of 2 meters per second as determined by a velocity probe 30 in chamber 28 and at an ambient temperature of 70° F. for 72 hours. The exhaust designated by arrows 32 of the wind tunnel was directly connected to the building ventilation duct to prevent Transfluthrin contamination of the lab. Strips 10 were removed at predetermined intervals and stored in the refrigerator for subsequent analytical or biological testing.
(§1) A validated analytical method was used to determine the residual level of active on the strips using gas chromatography. All samples were analyzed using this method to determine evaporation losses and release rates in the wind tunnel.

[3] = Residual analysis and release rate of large chamber samples; format: physicochemical
Method: as §1
The 8 hour aged strips were also sent to analytical for residual analysis. Results, as summarized in Table 18, indicate that the average release of transfluthrin during the 8 hour period is ˜0.2 mg/hr.
Lab studies were also conducted on a portable electric device where a corrugated disc was impregnated with 280 mg of transfluthrin. The disc was placed in a device which has a fan that runs on a battery. Air flows through the holes of the disc releasing the transfluthrin into the environment. Lab studies were conducted on this unit to determine its efficacy. […] Weight loss experiments were also conducted to determine the release rates from this unit.

Culex quinquefasciatus = assay: Field trials in living rooms, human bare-leg catch; format: in vivo; details: Malaysia field study
Method: Field trials against Culex quinquefasciatus were conducted in living rooms of residential houses in a squatter area at Ujung Batu, Butterworth on the Northwest peninsula of Malaysia on plastic strips coated with transfluthrin. […] A total of four configurations were tested.
Config. A 2 sheets hung together on each of four walls
Config. B 1 sheet hung on each four walls
Config. C 1 sheet hung on each two opposite walls
Config. D 1 sheet hung on a wall
The average volume of the rooms where the test is conducted is 75.5 cubic meters […]. The human baits were seated 1-2 meters away from all the treated sheets and the efficacy was evaluated using the human bare-leg catch technique during the first 0-2 hours, 24 hours, 96 hours, and 168 hours the placing of the test sheets in the rooms.
These tests were conducted under a rigorous test environment. The predominant species collected during the trials was Culex quinquefasciatus which are most tolerant to pyrethroid based household insecticide products among the common mosquitoes found in the living premises in tropical and subtropical regions globally. Due to the local weather changes, the squatter area chosen for the trials indicated lower indoor mosquito density during the pretreatment and treatment trials.

% Evap Barex [2] [%]	% Evap Filter Paper [2] [%]	SMILES	pest or weed control at 5 mg/strip [1] [%]	KD50 [1] [min]	KD80 [1] [min]	knockdown / biological activity in glass chamber (in words) [1]	other results
–	–	Cc1c(F)c(F)c(COC(=O)[C@@H]2[C@H](/C=C(\Cl)C(F)(F)F)C2(C)C)c(F)c1F (racemic) [Tefluthrin]	100	13.00	16.67	relatively lower activity	KD50 ([1]; listed as tefluthrin): 13 min
–	–	C=CCC1=C(C)C(OC(=O)[C@@H]2[C@@H](C=C(C)C)C2(C)C)CC1=O (some centres unmarked) [Bioallethrin]	–	>20	>20	either minimal activity or no activity at all	Dead (%) [1]: 0%
–	–	CC1(C)C(C=C(Cl)Cl)C1C(=O)OC(C#N)c1cccc(Oc2ccccc2)c1 (centres unmarked) [Cypermethrin]	0	>20	>20	either minimal activity or no activity at all	–
–	–	CCN(CC)C(=O)c1cccc(C)c1 [DEET]	–	>20	>20	either minimal activity or no activity at all	Dead (%) [1]: 0%
–	–	CC1(C)[C@H](C(=O)O[C@H](C#N)c2cccc(Oc3ccccc3)c2)[C@@H]1C=C(Br)Br [Deltamethrin]	20	>20	>20	either minimal activity or no activity at all	–
–	–	CCOP(=S)(OCC)Oc1nc(Cl)c(Cl)cc1Cl [Dursban]	0	>20	>20	either minimal activity or no activity at all	–
–	–	C#CCC1=C(C)C(OC(=O)C2C(C=C(C)C)C2(C)C)CC1=O (centres unmarked) [ETOC]	–	>20	>20	either minimal activity or no activity at all	Dead (%) [1]: 0%
70.3	45.0	CCO [Ethanol]	–	–	–	–	–
57.6	61.1	CCOC(C)=O [Ethyl Acetate]	–	–	–	–	–
–	–	CC(C)C(C(=O)OC(C#N)c1cccc(Oc2ccccc2)c1)c1ccc(Cl)cc1 (centres unmarked) [Fenvalerate]	0	>20	>20	either minimal activity or no activity at all	–
86.8	78.5	CCCCCCC [Heptane]	–	–	–	–	–
50.3	49.0	CC(C)O [IPA, isopropyl alcohol]	–	–	–	–	–
70.9	63.8	CC(=O)OCC(C)C [Isobutyl Acetate]	–	–	–	–	–
57.6	55.7	COC(C)=O [Methyl Acetate]	–	–	–	–	–
–	–	CC1(C)C(C=C(Cl)Cl)C1C(=O)OCc1cccc(Oc2ccccc2)c1 (centres unmarked) [Permanone]	–	>20	>20	either minimal activity or no activity at all	Dead (%) [1]: 0%
–	–	CNC(=O)Oc1ccccc1OC(C)C [Propoxur]	–	–	–	either minimal activity or no activity at all	–
–	–	CC(C)=CC1C(C(=O)OCc2coc(Cc3ccccc3)c2)C1(C)C (centres unmarked) [Resmethrin]	10	>20	>20	either minimal activity or no activity at all	–
–	–	CC(C)=CC1C(C(=O)OCc2cccc(Oc3ccccc3)c2)C1(C)C (centres unmarked) [Sumithrin]	0	>20	>20	either minimal activity or no activity at all	–
59.6	56.4	C1CCOC1 [THF]	–	–	–	–	–
–	–	CC1(C)[C@H](C=C(Cl)Cl)[C@H]1C(=O)OCc1c(F)c(F)cc(F)c1F [Transfluthrin, (IR-trans)-(2,3,5,6-tetrafluorophenyl)methyl 3-(2,2-dichoroethenyl)-2,2-dimethyl cyclopropane carboxylate]	100	–	6.83	highest activity	Transfluthrin loss in 8 hr ([3]; Barex strip on fan at 3.5 m/s): 1.5 mg; Release rate of Transfluthrin ([3]; average during the 8 hour period, Barex strip on fan, listed as transfluthrin): ~0.2 mg/h; transfluthrin release rate sufficient to achieve practical control (Culex quinquefasciatus): 0.18 mg/h
–	–	C#CC(OC(=O)C1C(C=C(C)C)C1(C)C)/C(C)=C/CC (centres unmarked) [Vapothrin]	–	>20	>20	either minimal activity or no activity at all	Dead (%) [1]: 0%

SMILES	% Evap Barex [2] [%]	% Evap Filter Paper [2] [%]	pest or weed control at 5 mg/strip [1] [%]	KD50 [1] [min]	KD80 [1] [min]	knockdown / biological activity in glass chamber (in words) [1]	other results
CCC(C)O (centres unmarked) [2-Butanol]	60.3	67.1	–	–	–	–	–
CC(C)=O [Acetone]	58.3	57.7	–	–	–	–	–
CCC(C)=O [MEK]	67.5	62.4	–	–	–	–	–
CO [Methanol]	58.3	47.0	–	–	–	–	–
Cc1ccccc1 [Toluene]	60.9	58.4	–	–	–	–	–
